The values below are quoted from earlier work in patent US20090088578A1, “NUCLEAR MAGNETIC RESONANCE IMAGING OF SELECTIVE SMALL MOLECULE DRUGS AS CONTRAST AGENTS” (priority 2007, published 2009).

The target of this data set is T1, aldehyde dehydrogenase 1 (Homo sapiens, UniProt P00352).
T1 sequence (P00352 1-501): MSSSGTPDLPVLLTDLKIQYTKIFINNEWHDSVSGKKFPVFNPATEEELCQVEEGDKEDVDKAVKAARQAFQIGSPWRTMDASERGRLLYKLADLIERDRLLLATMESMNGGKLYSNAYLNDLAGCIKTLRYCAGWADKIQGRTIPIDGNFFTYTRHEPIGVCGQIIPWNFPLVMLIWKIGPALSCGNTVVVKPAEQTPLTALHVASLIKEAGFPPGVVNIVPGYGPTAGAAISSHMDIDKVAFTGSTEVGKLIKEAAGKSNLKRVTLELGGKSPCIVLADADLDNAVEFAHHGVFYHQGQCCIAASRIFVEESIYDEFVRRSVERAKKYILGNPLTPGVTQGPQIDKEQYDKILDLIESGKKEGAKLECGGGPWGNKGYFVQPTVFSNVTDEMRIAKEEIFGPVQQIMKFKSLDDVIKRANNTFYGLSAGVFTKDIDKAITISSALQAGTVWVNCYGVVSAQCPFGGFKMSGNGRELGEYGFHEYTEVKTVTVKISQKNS
The conditions noted are these: one of its two known protein targets.

`CCN(CC)CCCC(C)Nc1ccnc2cc(Cl)ccc12` (stereo not shown) [Chloroquine, chloroquine]: the “affinity for aldehyde dehydrogenase 1” value is reported as “low affinity”.
